From US8609692B2, “TRPV1 antagonists” (AbbVie Inc., priority 2008, dated 2013)

Columns and labels:
[1] = target: T1, human TRPV1 receptor (hTRPV1) (Homo sapiens, UniProt Q8NER1); experiment: Capsaicin activation assay (Ca2+ influx, FLIPR); assay type: cell-based; conditions: 0.05 μM capsaicin, 1321N1 cells expressing hTRPV1
T1 construct: expressed in transfected cells
Method: Dulbecco's modified Eagle medium (D-MEM) (with 4.5 mg/mL glucose) and fetal bovine serum were obtained from Hyclone Laboratories, Inc. (Logan, Utah). Dulbecco's phosphate-buffered saline (D-PBS) (with 1 mg/mL glucose and 3.6 mg/l Na pyruvate, without phenol red), L-glutamine, hygromycin B, and Lipofectamine® were obtained from Life Technologies (Grand Island, N.Y.). G418 sulfate was obtained from Calbiochem-Novabiochem Corp. (San Diego, Calif.). Capsaicin (8-methyl-N-vanillyl-6-nonenamide) was obtained from Sigma-Aldrich, Co. (St. Louis, Mo.). Fluo-4 AM (N-[4-[6-[(acetyloxy)methoxy]-2,7-difluoro-3-oxo-3H-xanthen-9-yl]-2-[2-[2-[bis[2-[(acetyloxy)methoxy]-2-oxyethyl]amino]-5-methyl-phenoxy]ethoxy]phenyl]-N-[2-[(acetyloxy)methoxy]-2-oxyethyl]-glycine, (acetyloxy)methyl ester) was purchased from Molecular Probes (Eugene, Oreg.).
The cDNAs for the human TRPV1 receptor (hTRPV1) were isolated by reverse transcriptase-polymerase chain reaction (RT-PCR) from human small intestine poly A+RNA supplied by Clontech (Palo Alto, Calif.) using primers designed surrounding the initiation and termination codons identical to the published sequences (Hayes et al. Pain 2000, 88, 205-215). The resulting cDNA PCR products were subcloned into pCIneo mammalian expression vector (Promega) and fully sequenced using fluorescent dye-terminator reagents (Prism, Perkin-Elmer Applied Biosystems Division) and a Perkin-Elmer Applied Biosystems Model 373 DNA sequencer or Model 310 genetic analyzer. Expression plasmids encoding the hTRPV1 cDNA were transfected individually into 1321N1 human astrocytoma cells using Lipofectamine®. Forty-eight hours after transfection, the neomycin-resistant cells were selected with growth medium containing 800 μg/mL Geneticin (Gibco BRL). Surviving individual colonies were isolated and screened for TRPV1 receptor activity. Cells expressing recombinant homomeric TRPV1 receptors were maintained at 37° C. in D-MEM containing 4 mM L-glutamine, 300 μg/mL G418 (Cal-biochem) and 10% fetal bovine serum under a humidified 5% CO2 atmosphere.
The functional activity of compounds at the TRPV1 receptor was determined with a Ca^2+ influx assay and measurement of intracellular Ca^2+ levels ([Ca^2+]i). All compounds were tested over an 11-point half-log concentration range. Compound solutions were prepared in D-PBS (4× final concentration), and diluted serially across 96-well v-bottom tissue culture plates using a Biomek 2000 robotic automation workstation (Beckman-Coulter, Inc., Fullerton, Calif.). A 0.2 μM solution of the TRPV1 agonist capsaicin was also prepared in D-PBS. The fluorescent Ca^2+ chelating dye Fluo-4 AM was used as an indicator of the relative levels of [Ca^2+]i in a 96-well format using a Fluorescence Imaging Plate Reader (FLIPR) (Molecular Devices, Sunnyvale, Calif.). Cells were grown to confluency in 96-well black-walled tissue culture plates. Then, prior to the assay, the cells were loaded with 100 μL per well of Fluo-4 AM (2 μM, in D-PBS) for 1-2 hours at 23° C. Washing of the cells was performed to remove extracellular Fluo-4 AM (2×1 mL D-PBS per well), and afterward, the cells were placed in the reading chamber of the FLIPR instrument. 50 μL of the compound solutions were added to the cells at the 10 second time mark of the experimental run. Then, after a 3-minute time delay, 50 μL of the capsaicin solution was added at the, 190 second time mark (0.05 μM final concentration)(final volume=200 μL) to challenge the TRPV1 receptor. Time length of the experimental run was 240 seconds. Fluorescence readings were made at 1 to 5 second intervals over the course of the experimental run. The peak increase in relative fluorescence units (minus baseline) was calculated from the 190 second time mark to the end of the experimental run, and expressed as a percentage of the 0.05 μM capsaicin (control) response. […]

human TRPV1 = target: T2, human TRPV1 (Homo sapiens, UniProt Q8NER1); experiment: Acid activation assay - ratiometric calcium imaging of capsaicin- or acid-induced responses; assay type: cell-based; conditions: Example 30 at 3 μM, HEK293-F cells expressing human TRPV1, FIG. 1; for block of TRPV1-mediated increase in intracellular calcium concentration in response to capsaicin: capsaicin 1 μM; for block of TRPV1-mediated increase in intracellular calcium concentration in response to acid: pH 5.5
T2 construct: expressed in transfected cells; host or cells: HEK293-F cells, transient transfection
T2 sequence (Q8NER1 whole entry): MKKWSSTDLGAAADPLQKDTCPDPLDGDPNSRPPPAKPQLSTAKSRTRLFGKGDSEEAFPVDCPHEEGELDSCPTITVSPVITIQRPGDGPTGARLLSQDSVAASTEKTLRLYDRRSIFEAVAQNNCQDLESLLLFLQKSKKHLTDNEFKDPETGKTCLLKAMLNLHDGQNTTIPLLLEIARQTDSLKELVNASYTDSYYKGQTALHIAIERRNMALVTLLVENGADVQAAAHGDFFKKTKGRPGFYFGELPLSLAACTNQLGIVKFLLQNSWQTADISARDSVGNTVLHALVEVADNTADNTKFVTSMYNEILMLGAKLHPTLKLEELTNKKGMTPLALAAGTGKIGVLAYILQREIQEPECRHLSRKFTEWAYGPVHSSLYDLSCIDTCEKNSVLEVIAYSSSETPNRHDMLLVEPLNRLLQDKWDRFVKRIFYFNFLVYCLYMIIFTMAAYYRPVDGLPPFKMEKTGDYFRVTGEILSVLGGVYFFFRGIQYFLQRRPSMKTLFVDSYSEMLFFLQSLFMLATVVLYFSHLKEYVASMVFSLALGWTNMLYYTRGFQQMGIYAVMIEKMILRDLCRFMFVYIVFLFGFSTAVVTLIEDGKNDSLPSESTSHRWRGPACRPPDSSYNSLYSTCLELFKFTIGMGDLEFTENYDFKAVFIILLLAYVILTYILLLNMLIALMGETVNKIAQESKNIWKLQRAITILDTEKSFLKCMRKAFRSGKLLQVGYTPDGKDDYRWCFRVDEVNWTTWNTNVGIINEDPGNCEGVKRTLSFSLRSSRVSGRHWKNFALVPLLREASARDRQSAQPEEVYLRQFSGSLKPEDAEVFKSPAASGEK
Method: The differential effects of TRPV1 antagonists on capsaicin- or acid-induced responses were verified by ratiometric calcium imaging. Transiently transfected HEK293-F cells expressing human TRPV1 were incubated with 5 μM Fura-2AM for 30 minutes at 37° C. Intracellular calcium concentration was measured on an imaging system consisting of the X-Cite™ 120 Fluorescence Illumination System (EXFO) and a Digital Camera (C4742-95, Hamamatsu Photonics) connected to an Olympus 1×71 microscope. Through the control of Slide Book 4.2 software, fluorescence was measured during excitation at 340 and 380 nm; the ratio of the fluorescence at both excitation wavelengths (F340/F380) was monitored. D-PBS, pH 7.4 (Invitrogen, catalog no. 14287) was used as the extracellular solution. Acidic buffer was prepared by titrating D-PBS, pH 7.4 with 7 N HCl to pH 5.5. Agonists and antagonists were prepared in the pH 7.4 or 5.5 solutions. Rapid solution switch was achieved by using a ValveLink system. […] Over the 2100-second time course, the cells were continuously perfused with D-PBS, pH7.4 or challenged sequentially with solutions containing Example 30 (3 μM), Example 30 (3 μM) plus capsaicin (1 μM), Example 30 (3 μM) plus acid (pH 5.5), acid (pH 5.5) alone, or capsaicin (1 μM) alone. The black bars above the traces designate addition and duration of solution applications. Spaces between horizontal bars represent periods in which cells were perfused with D-PBS, pH 7.4.

[2] = Rat telemetry protocol (core body temperature); assay type: in vivo; conditions: core body temperature of rats at one hour post dosing (100 μmol/kg, p.o.), relative to vehicle
Method: Male, Sprague Dawley rats, 225-250 grams were anesthetized with Sevoflurane (Abbott Laboratories). Rats were placed on a heating pad and covered with a sterile surgical drape. A ventral midline abdominal incision was made and sterile cotton tip applicators were used to gently move internal tissue and expose the abdominal aorta for implantation of the telemetry catheter (Data Sciences International; TL11M2-050-PXT). Blood flow was temporarily stopped to the lower extremities (5-7 min) with Diffenbach clamps to allow the insertion of the telemetry catheter into the abdominal aorta. Once inserted, a sterile cellulose patch was placed over the catheter/aorta and secured using a small amount of tissue adhesive (Vetbond, 3M). Once catheter placement was complete, the clamps were removed and blood flow was restored to the lower extremities. The transmitter was placed in the intraperitoneal cavity. The transmitter suture rib was sewn into the abdominal sutures to secure it in place. The skin was closed using sterile wound clips and the animal removed from Sevoflurane. Buprenex ([…] s.c.; Phoenix) was administered for post-operative analgesia. Animals were maintained on a heating pad until ambulatory, and then individually housed with food and water ad lib. Surgical staples were removed after 7-10 days post-implantation. Rats were allowed a 2-week post-surgical recovery period before treatment with test compound. Oral dosing (p.o.) was at time zero, with rats receiving a single dose of vehicle (10% EtOH, 20% Tween-80, 70% PEG-400) or a 100 μmol/kg dose of compound dissolved in vehicle. Temperature measurements were recorded every 15 minutes for the duration of the study (24 hours).
The term “core body temperature” as used herein, means the temperature measured in the intraperitoneal cavity.

T1 sequence (Q8NER1 whole entry): as above

Molecule | IC50 [1] [nM] | block of TRPV1-mediated increase in intracellular calcium concentration in response to capsaicin (human TRPV1) | block of TRPV1-mediated increase in intracellular calcium concentration in response to acid (human TRPV1) | Δ Temp [2] [°C]
CC1(C)C[C@@H](NC(=O)Nc2cccc3c2C[C@H](O)CC3)c2ccc(F)cc2O1 [Example 30, N-[(4R)-7-fluoro-2,2-dimethyl-3,4-dihydro-2H-chromen-4-yl]-N′-[(7R)-7-hydroxy-5,6,7,8-tetrahydronaphthalen-1-yl]urea] | 17 | completely blocked | completely blocked | 1.1
CC1(C)C[C@@H](NC(=O)Nc2cccc3c2C[C@@H](O)CC3)c2ccc(F)cc2O1 [Example 31, N-[(4R)-7-fluoro-2,2-dimethyl-3,4-dihydro-2H-chromen-4-yl]-N′-[(7S)-7-hydroxy-5,6,7,8-tetrahydronaphthalen-1-yl]urea] | 20 | completely blocked | completely blocked | 1.0
CC1(C)C[C@@H](NC(=O)Nc2cccc3c2C[C@@H](O)CC3)c2ccc(OC(F)(F)F)cc2O1 [Example 116, N-[(4R)-2,2-dimethyl-7-(trifluoromethoxy)-3,4-dihydro-2H-chromen-4-yl]-N′-[(7S)-7-hydroxy-5,6,7,8-tetrahydronaphthalen-1-yl]urea] | 13 | – | – | 1.1
CCC1(CC)C[C@@H](NC(=O)Nc2cccc3c2cnn3C)c2ccc(F)cc2O1 [Example 46, N-[(4R)-2,2-diethyl-7-fluoro-3,4-dihydro-2H-chromen-4-yl]-N′-(1-methyl-1H-indazol-4-yl)urea] | 17 | – | – | 0.7
Cn1ncc2c(NC(=O)N[C@@H]3CC(CF)(CF)Oc4cc(OC(F)(F)F)ccc43)cccc21 [Example 92, N-[(4R)-2,2-bis(fluoromethyl)-7-(trifluoromethoxy)-3,4-dihydro-2H-chromen-4-yl]-N′-(1-methyl-1H-indazol-4-yl)urea] | 21 | – | – | 0.8
CCC1(CC)C[C@@H](NC(=O)Nc2cccc3c2C[C@@H](O)CC3)c2ccc(Cl)cc2O1 [Example 76, N-[(4R)-7-chloro-2,2-diethyl-3,4-dihydro-2H-chromen-4-yl]-N′-[(7S)-7-hydroxy-5,6,7,8-tetrahydronaphthalen-1-yl]urea] | 9 | – | – | 1.3
O=C(Nc1cccc2ccncc12)N[C@@H]1CC(CF)(CF)Oc2cc(C(F)(F)F)ccc21 [Example 93, N-[(4R)-2,2-bis(fluoromethyl)-7-(trifluoromethyl)-3,4-dihydro-2H-chromen-4-yl]-N′-isoquinolin-8-ylurea] | 32 | – | – | 1.1
O=C(Nc1cccc2c1C[C@H](O)CC2)N[C@@H]1CC(CF)(CF)Oc2cc(Cl)ccc21 [Example 105, N-[(4R)-7-chloro-2,2-bis(fluoromethyl)-3,4-dihydro-2H-chromen-4-yl]-N′-[(7R)-7-hydroxy-5,6,7,8-tetrahydronaphthalen-1-yl]urea] | 35 | – | – | 1.1
CC1(C)C[C@@H](NC(=O)Nc2cccc3c2C[C@H](O)CC3)c2cc(F)ccc2O1 [Example 4, N-[(4R)-6-fluoro-2,2-dimethyl-3,4-dihydro-2H-chromen-4-yl]-N′-[(7R)-7-hydroxy-5,6,7,8-tetrahydronaphthalen-1-yl]urea] | 30 | – | – | 0.6
N-[(4R)-8-tert-butyl-3,4-dihydro-2H-chromen-4-yl]-N-(3-methylisoquinolin-5-yl)urea, hydrochloride salt [Example 100] | 7 | – | – | 1.7

More lines, main results first:

IC50 [1] [nM] | block of TRPV1-mediated increase in intracellular calcium concentration in response to capsaicin (human TRPV1) | block of TRPV1-mediated increase in intracellular calcium concentration in response to acid (human TRPV1) | Molecule | Δ Temp [2] [°C]
35 | – | – | Cc1cc2c(NC(=O)N[C@@H]3CC(C)(C)Oc4cc(C(F)(F)F)ccc43)c(F)ccc2cn1 [Example 125, N-[(4R)-2,2-dimethyl-7-(trifluoromethyl)-3,4-dihydro-2H-chromen-4-yl]-N′-(6-fluoro-3-methylisoquinolin-5-yl)urea] | 0.5
14 | – | – | Cn1ncc2c(NC(=O)N[C@@H]3CC(C)(C)Oc4cc(C(F)(F)F)ccc43)cccc21 [Example 33, N-[(4R)-2,2-dimethyl-7-(trifluoromethyl)-3,4-dihydro-2H-chromen-4-yl]-N′-(1-methyl-1H-indazol-4-yl)urea] | 1.4
15 | – | – | CC1(C)C[C@@H](NC(=O)Nc2cccc3c2C[C@@H](O)CC3)c2ccc(F)c(F)c2O1 [Example 114, N-[(4R)-7,8-difluoro-2,2-dimethyl-3,4-dihydro-2H-chromen-4-yl]-N′-[(7S)-7-hydroxy-5,6,7,8-tetrahydronaphthalen-1-yl]urea] | 0.6
28 | – | – | CC1(C)C[C@@H](NC(=O)Nc2cccc3ccncc23)c2ccc(C(F)(F)F)cc2O1 [Example 43, N-[(4R)-2,2-dimethyl-7-(trifluoromethyl)-3,4-dihydro-2H-chromen-4-yl]-N′-isoquinolin-8-ylurea] | 1.5
82 | – | – | Cc1cc2c(NC(=O)NC3CC(C)(C)Oc4c3ccc(N3CCCCC3)c4F)cccc2cn1 (stereo not shown) [Example 117, N-(8-fluoro-2,2-dimethyl-7-piperidin-1-yl-3,4-dihydro-2H-chromen-4-yl)-N′-(3-methylisoquinolin-5-yl)urea] | 1.0
